Tests used:
[1] = biological target: CDK2/Cyclin E1 full length (Homo sapiens (Human), UniProt P24941); test: CDK2/Cyclin E1 full length mobility shift assay; assay type: biochemical
GSK3β (H350L) = GSK3β (H350L) (Homo sapiens (Human), UniProt P49841); details: read-out: GSK3β Ki
GSK3β (H350L), sequence (P49841 whole entry, stated change not applied): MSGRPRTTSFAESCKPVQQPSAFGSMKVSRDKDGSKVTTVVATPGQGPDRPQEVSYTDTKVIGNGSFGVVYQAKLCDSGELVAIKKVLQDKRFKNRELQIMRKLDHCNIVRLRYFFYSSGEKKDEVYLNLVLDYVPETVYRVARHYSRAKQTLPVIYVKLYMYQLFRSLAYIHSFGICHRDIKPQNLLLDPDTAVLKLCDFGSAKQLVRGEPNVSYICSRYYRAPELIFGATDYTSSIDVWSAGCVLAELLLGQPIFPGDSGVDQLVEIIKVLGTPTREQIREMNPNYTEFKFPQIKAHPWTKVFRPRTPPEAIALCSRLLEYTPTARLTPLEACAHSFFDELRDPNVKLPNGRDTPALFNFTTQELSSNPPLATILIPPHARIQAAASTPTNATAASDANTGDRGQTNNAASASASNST
Protocol: The assay was initiated with the addition of ATP, following 15 minutes pre-incubation of enzyme and inhibitor at room temperature in the reaction mixture. The reaction was stopped after 30 minutes at room temperature by the addition of 50 μL of 80 mM EDTA.

Molecule Cc1cc(CC(=O)Nc2cc([C@H]3CC[C@@H](OC(=O)N4CCCCC4(C)C)C3)[nH]n2)on1 [Example 133] has a Ki [1] of 0.11 nM and a Ki (GSK3β (H350L)) of 7 nM.

In the case of CC1(NC(=O)O[C@@H]2CC[C@H](c3cc(NC(=O)Cc4ccno4)n[nH]3)C2)CCCC1 [Example 117], the Ki [1] is reported as 0.14 nM and the Ki (GSK3β (H350L)) is reported as 15.9 nM.

In the case of Cc1cc(CC(=O)Nc2cc([C@H]3CC[C@@H](OC(=O)N4[C@@H](C)COC[C@@H]4C)C3)[nH]n2)on1 [Example 648, (1R,3S)-3-(3-{[(3-methyl-1,2-oxazol-5-yl)acetyl]amino}-1H-pyrazol-5-yl)cyclopentyl (3S,5S)-3,5-dimethylmorpholine-4-carboxylate], the Ki [1] is reported as 0.47 nM and the Ki (GSK3β (H350L)) is reported as 12.2 nM.

In the case of COc1ccc(CC(=O)Nc2cc([C@H]3CC[C@@H](OC(=O)NC(C)(C)C)C3)[nH]n2)cn1 [Example 114], the Ki [1] is reported as 0.19 nM and the Ki (GSK3β (H350L)) is reported as 5.65 nM.

Cc1cc(CC(=O)Nc2cc([C@H]3CC[C@@H](OC(=O)N4CCC4(C)C)C3)[nH]n2)on1 [Example 12, (1R,3S)-3-(3-{[(3-methyl-1,2-oxazol-5-yl)acetyl]amino}-1H-pyrazol-5-yl)cyclopentyl 2,2-dimethylazetidine-1-carboxylate] was tested, and the Ki [1] was 0.13 nM and the Ki (GSK3β (H350L)) was 4.86 nM.

CCCNC(=O)O[C@H]1CC[C@@H](c2cc(NC(=O)c3ccnn3C)n[nH]2)C1 [Example 163, (1S,3R)-3-(3-{[(1-methyl-1H-pyrazol-5-yl)carbonyl]amino}-1H-pyrazol-5-yl)cyclopentyl propylcarbamate] gave a Ki [1] of 0.32 nM and a Ki (GSK3β (H350L)) of 16.6 nM.

CC[C@H](C)NC(=O)O[C@@H]1CC[C@H](c2cc(NC(=O)Cc3ccc(C)nc3)n[nH]2)C1 [Example 35] was tested, and the Ki [1] was 0.22 nM and the Ki (GSK3β (H350L)) was 12.5 nM.

For CCCNC(=O)O[C@@H]1CC[C@H](c2cc(NC(=O)c3ccc(OC)nc3)n[nH]2)C1 [Example 183, (1R,3S)-3-(3-{[(6-methoxypyridin-3-yl)carbonyl]amino}-1H-pyrazol-5-yl)cyclopentyl propylcarbamate], the Ki [1] was 3.68 nM and the Ki (GSK3β (H350L)) was > 95.3 nM.

In the case of CCCNC(=O)O[C@H]1CC[C@@H](c2cc(NC(=O)Cc3ccc(OC)nc3)n[nH]2)C1 [Example 21], the Ki [1] is reported as 0.25 nM and the Ki (GSK3β (H350L)) is reported as 4.2 nM.

Molecule CCCNC(=O)O[C@@H]1CC[C@H](c2cc(NC(=O)Cc3cncs3)n[nH]2)C1 [Example 179, (1R,3S)-3-{3-[(1,3-thiazol-5-ylacetyl)amino]-1H-pyrazol-5-yl}cyclopentyl propylcarbamate] has a Ki [1] of 0.54 nM and a Ki (GSK3β (H350L)) of 13.5 nM.

CC(C)NC(=O)O[C@H]1CC[C@@H](c2cc(NC(=O)c3cnnn3C)n[nH]2)C1 [Example 261, (1S,3R)-3-(3-{[(1-methyl-1H-1,2,3-triazol-5-yl)carbonyl]amino}-1H-pyrazol-5-yl)cyclopentyl propan-2-ylcarbamate] was tested, and the Ki [1] was 1 nM and the Ki (GSK3β (H350L)) was 121 nM.

Cc1cnc(CC(=O)Nc2cc([C@H]3CC[C@@H](OC(=O)NC4(CC(F)(F)F)CC4)C3)[nH]n2)cn1 [Example 455, (1R,3S)-3-(3-{[(5-methylpyrazin-2-yl)acetyl]amino}-1H-pyrazol-5-yl)cyclopentyl [1-2,2,2-trifluoroethyl)cyclopropyl] carbamate] showed a Ki [1] of 0.47 nM and a Ki (GSK3β (H350L)) of 21.3 nM.

Cc1ncc(CC(=O)Nc2cc([C@H]3CC[C@@H](OC(=O)NC4(C)CCCC4)C3)[nH]n2)s1 [Example 116] gave a Ki [1] of 0.13 nM and a Ki (GSK3β (H350L)) of 8.86 nM.

For COCc1cc(C(=O)Nc2cc([C@H]3CC[C@@H](OC(=O)N[C@@H](C)C4CC4)C3)[nH]n2)n(C)n1 [Example 104], the Ki [1] was 0.17 nM and the Ki (GSK3β (H350L)) was > 47.6 nM.

In the case of CCCNC(=O)O[C@H]1CC[C@@H](c2cc(NC(=O)c3ccnc(OC)c3)n[nH]2)C1 [Example 184, (1S,3R)-3-(3-{[(2-methoxypyridin-4-yl)carbonyl]amino}-1H-pyrazol-5-yl)cyclopentyl propylcarbamate], the Ki [1] is reported as 1.35 nM and the Ki (GSK3β (H350L)) is reported as > 95.3 nM.

Molecule CC[C@H](C)NC(=O)O[C@@H]1CC[C@H](c2cc(NC(=O)Cc3cc(C)no3)n[nH]2)C1 [Example 32] has a Ki [1] of 0.36 nM and a Ki (GSK3β (H350L)) of 35.7 nM.

CC1(C)CCN1C(=O)O[C@H]1CC[C@@H](c2cc(NC(=O)Cc3ccccc3S(C)(=O)=O)n[nH]2)C1 [Example 143] gave a Ki [1] of 0.25 nM and a Ki (GSK3β (H350L)) of 15.8 nM.

Source: US11014911B2, “CDK2 inhibitors” (Pfizer Inc., priority 2019, dated 2021)
